In brackets after ≈: the same amount, converted by molar mass. Where two headings read alike, the source gives them in different places.
Columns and labels:
MAO-A = target: T1, MAO-A (Homo sapiens, UniProt P21397); test: MAO-A in-vitro assay, human liver enzyme expressed in yeast; assay type: biochemical
T1 construct: made in house; host or cells: yeast
T1 sequence (P21397 1-527): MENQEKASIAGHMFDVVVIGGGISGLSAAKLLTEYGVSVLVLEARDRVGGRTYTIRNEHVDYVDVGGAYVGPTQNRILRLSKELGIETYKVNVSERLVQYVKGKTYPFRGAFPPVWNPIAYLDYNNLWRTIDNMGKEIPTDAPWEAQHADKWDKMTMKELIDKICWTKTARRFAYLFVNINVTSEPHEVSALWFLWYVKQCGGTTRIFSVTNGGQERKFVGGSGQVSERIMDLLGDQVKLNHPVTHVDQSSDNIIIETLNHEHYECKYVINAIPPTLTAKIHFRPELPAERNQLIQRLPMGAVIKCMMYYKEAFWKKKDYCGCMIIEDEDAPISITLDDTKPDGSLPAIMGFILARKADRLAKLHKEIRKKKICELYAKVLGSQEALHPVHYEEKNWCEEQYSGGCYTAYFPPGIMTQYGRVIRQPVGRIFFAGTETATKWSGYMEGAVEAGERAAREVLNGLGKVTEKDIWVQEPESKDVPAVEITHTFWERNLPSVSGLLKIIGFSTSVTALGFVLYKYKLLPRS
Method: The activity of the compounds of the invention against MAO-A was tested using a standard in-vitro assay based on human liver enzyme expressed in yeast as described in Biochem. Biophys. Res. Commun. 1991, 181, 1084–1088.

[1] = system: Staphylococcus aureus MRQR; test: MIC by agar-dilution, Staphylococci on agar; assay type: cell-based; details: MRQR = methicillin resistant and quinolone resistant, inoculum 10^4 CFU/spot, 37° C., 24 hours
Method: (§1) The following results were obtained on a standard in-vitro test system. The activity is described in terms of the minimum inhibitory concentration (MIC) determined by the agar-dilution technique with an inoculum size of 10^4 CFU/spot. Typically, compounds are active in the range 0.01 to 256 μg/ml.
(§2) Staphylococci were tested on agar, using an inoculum of 10^4 CFU/spot and an incubation temperature of 37° C. for 24 hours—standard test conditions for the expression of methicillin resistance.

[2] = system: Staphylococcus aureus MSQS; test: MIC by agar-dilution, Staphylococci on agar; assay type: cell-based; details: MSQS = methicillin sensitive and quinolone sensitive, inoculum 10^4 CFU/spot, 37° C., 24 hours
Method: as §1, §2

Streptococcus pneumoniae = test: MIC, Streptococci on agar with 5% defibrinated horse blood; assay type: cell-based; details: 5% carbon dioxide, 48 hours
Method: (§3) The following results were obtained on a standard in-vitro test system. The activity is described in terms of the minimum inhibitory concentration (MIC) determined by the agar-dilution technique with an inoculum size of 10^4 CFU/spot. Typically, compounds are active in the range 0.01 to 256 μg/ml. Streptococci and enterococci were tested on agar supplemented with 5% defibrinated horse blood, an inoculum of 10^4 CPU/spot and an incubation temperature of 37° C. in an atmosphere of 5% carbon dioxide for 48 hours—blood is required for the growth of some of the test organisms. Fastidious Gram negative organisms were tested in Mueller-Hinton broth, supplemented with hemin and NAD, grown aerobically for 24 hours at 37° C., and with an innoculum of 5×10^4 CFU/well.

Haemophilus influenzae = test: MIC, fastidious Gram negative organisms in Mueller-Hinton broth; assay type: cell-based; details: Mueller-Hinton broth with hemin and NAD, 24 hours, 5×10^4 CFU/well
Method: as §3

Moraxella catarrhalis = test: as above; assay type: cell-based; details: Mueller-Hinton broth with hemin and NAD, 24 hours, 5×10^4 CFU/well
Method: as §3

| Ki (MAO-A; read-out: MAO-A Ki) | melting point | Compound | other results |
| --- | --- | --- | --- |
| – | – | O=C1O[C@@H](Cn2ccnn2)CN1c1ccc(-c2ccc(C3=NO[C@H](CO)C3)nc2)c(F)c1 [Example 1, (5R)-3-(3-Fluoro-4-{6-[(5S)-5-(hydroxymethyl)-4,5-dihydroisoxazol-3-yl]pyridin-3-yl}phenyl)-5-(1H-1,2,3-triazol-1-ylmethyl)-1,3-oxazolidin-2-one] | Ki (MAO-A; human liver enzyme expressed in yeast, read-out: Ki value (MAO-A)): 20 µM; MIC [1]: 0.5 µg/mL (≈ 1.14 µM); MIC [2]: 0.25 µg/mL (≈ 0.57 µM); MIC (Streptococcus pneumoniae): 0.02 µg/mL (≈ 0.0456 µM); MIC (Haemophilus influenzae): 4 µg/mL (≈ 9.12 µM); MIC (Moraxella catarrhalis): 0.5 µg/mL (≈ 1.14 µM) |
| 0.7 µM | – | O=C1O[C@@H](Cn2ccnn2)CN1c1ccc(-c2ccc(C3=NO[C@@H](CO)C3)nc2)c(F)c1 [Example 2, (5R)-3-(3-Fluoro-4-{6-[(5R)-5-(hydroxymethyl)-4,5-dihydroisoxazol-3-yl]pyridin-3-yl}phenyl)-5-(1H-1,2,3-triazol-1-ylmethyl)-1,3-oxazolidin-2-one] | – |
| 9 µM | – | CC(=O)NC[C@H]1CN(c2ccc(-c3ccc(C4=NO[C@H](CO)C4)nc3)c(F)c2)C(=O)O1 [Example 3, N-{[(5S)-3-(3-Fluoro-4-{6-[(5S)-5-(hydroxymethyl)-4,5-dihydroisoxazol-3-yl]pyridin-3-yl}phenyl)-2-oxo-1,3-oxazolidin-5-yl]methyl}acetamide] | – |
| 3 µM | – | CC(=O)NC[C@H]1CN(c2ccc(-c3ccc(C4=NO[C@@H](CO)C4)nc3)c(F)c2)C(=O)O1 [Example 4, N-{[(5S)-3-(3-Fluoro-4-{6-[(5R)-5-(hydroxymethyl)-4,5-dihydroisoxazol-3-yl]pyridin-3-yl}phenyl)-2-oxo-1,3-oxazolidin-5-yl]methyl}acetamide] | – |
| – | 205 to 226 °C | O=C(OC[C@@H]1CC(c2ccc(-c3ccc(N4C[C@H](Cn5ccnn5)OC4=O)cc3F)cn2)=NO1)c1cnccn1 [Example 30, [(5S)-3-(5-{2-fluoro-4-[(5R)-2-oxo-5-(1H-1,2,3-triazol-1-ylmethyl)-1,3-oxazolidin-3-yl]phenyl}pyridin-2-yl)-4,5-dihydroisoxazol-5-yl]methylpyrazine-2-carboxylate] | – |
| – | 253 to 264 °C | O=C(OC[C@@H]1CC(c2ccc(-c3ccc(N4C[C@H](Cn5ccnn5)OC4=O)cc3F)cn2)=NO1)c1cncnc1 [Example 31] | – |
| – | 82 °C | COC(=O)N(C)CCCCC(=O)OC[C@@H]1CC(c2ccc(-c3ccc(N4C[C@H](Cn5ccnn5)OC4=O)cc3F)cn2)=NO1 [Example 33, [(5S)-3-(5-{2-fluoro-4-[(5R)-2-oxo-5-(1H-1,2,3-triazol-1-ylmethyl)-1,3-oxazolidin-3-yl]phenyl}pyridin-2-yl)-4,5-dihydroisoxazol-5-yl]methyl 5-[(methoxycarbonyl)(methyl)amino]pentanoate] | – |
| – | 135 °C | COC(=O)N(C)CCCC(=O)OC[C@@H]1CC(c2ccc(-c3ccc(N4C[C@H](Cn5ccnn5)OC4=O)cc3F)cn2)=NO1 [Example 35, [(5S)-3-(5-{2-fluoro-4-[(5R)-2-oxo-5-(1H-1,2,3-triazol-1-ylmethyl)-1,3-oxazolidin-3-yl]phenyl}pyridin-2-yl)-4,5-dihydroisoxazol-5-yl]methyl 4-[(methoxycarbonyl)(methyl)amino]butanoate] | – |
| – | 103 °C | COC(=O)N(C)CCCCCC(=O)OC[C@@H]1CC(c2ccc(-c3ccc(N4C[C@H](Cn5ccnn5)OC4=O)cc3F)cn2)=NO1 [Example 36, [(5S)-3-(5-{2-fluoro-4-[(5R)-2-oxo-5-(1H-1,2,3-triazol-1-ylmethyl)-1,3-oxazolidin-3-yl]phenyl}pyridin-2-yl)-4,5-dihydroisoxazol-5-yl]methyl 6-[(methoxycarbonyl)(methyl)amino]hexanoate] | – |

| Compound | Ki (MAO-A; read-out: MAO-A Ki) | melting point | other results |
| --- | --- | --- | --- |
| CN(CCCCC(=O)OC[C@@H]1CC(c2ccc(-c3ccc(N4C[C@H](Cn5ccnn5)OC4=O)cc3F)cn2)=NO1)C(=O)OC(C)(C)C [Example 34, [(5S)-3-(5-{2-fluoro-4-[(5R)-2-oxo-5-(1H-1,2,3-triazol-1-ylmethyl)-1,3-oxazolidin-3-yl]phenyl}pyridin-2-yl)-4,5-dihydroisoxazol-5-yl]methyl 5-[(tert-butoxycarbonyl)(methyl)amino]pentanoate] | – | 121 °C | – |

From US7192974B2, “Hydroxymethyl substituted dihydroisoxazole derivatives useful as antibiotic agents” (AstraZeneca AB, priority 2003, dated 2007)
